# Patent US7829563B2, “Aminoamides as orexin antagonists” (Hoffmann-La Roche Inc., priority 2007, dated 2010)
# Biological target: T1, human orexin-2 (hOX2) receptors (Homo sapiens, UniProt O43614)
# T1 construct: expressed in transfected cells
# T1 sequence (O43614 1-444): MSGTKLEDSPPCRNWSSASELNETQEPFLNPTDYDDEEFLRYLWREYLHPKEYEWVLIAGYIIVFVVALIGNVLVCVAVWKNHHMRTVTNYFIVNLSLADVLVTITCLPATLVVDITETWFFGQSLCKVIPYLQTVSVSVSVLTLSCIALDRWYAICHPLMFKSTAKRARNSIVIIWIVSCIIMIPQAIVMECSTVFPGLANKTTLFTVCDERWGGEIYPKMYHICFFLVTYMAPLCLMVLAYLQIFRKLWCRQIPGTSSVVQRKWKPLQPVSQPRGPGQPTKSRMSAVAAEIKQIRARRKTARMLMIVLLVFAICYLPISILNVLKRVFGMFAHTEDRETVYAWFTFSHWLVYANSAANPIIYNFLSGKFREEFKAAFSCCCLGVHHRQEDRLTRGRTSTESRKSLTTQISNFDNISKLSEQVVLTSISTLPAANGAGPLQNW
# Assay: Intracellular Ca2+ mobilization assay (FLIPR), antagonism of orexin-A
# Assay type: cell-based
# Conditions: CHO(dHFr−) cells stably expressing hOX2; orexin-A at EC80 as agonist; Kb=IC50/(1+[A]/EC50); read-out: Kb (μM) OX2R (human)
# Protocol: R^7 and R^8 in scheme 5 are hydrogen, and the other substituents are as described above The compounds were investigated in accordance with the test given hereinafter. Intracellular Ca^2+ Mobilization Assay
# The Chinese Hamster Ovary (dHFr−) mutant cell line stably expressing human orexin-1 (hOX1) or human orexin-2 (hOX2) receptors were maintained in Dulbecco's Modified Eagle Medium (1×) with GlutaMax™ 1, 4500 mg/L D-Glucose and Sodium Pyruvate (Catalog No. 31966-021, Invitrogen, Carlsbad, Calif.), 5% dialyzed fetal calf serum (Catalog No. 26400-044), 100 μg/ml penicillin and 100 μg/ml streptomycin. The cells were seeded at 5×10^4 cells/well in the poly-D-lysine treated, 96-well, black/clear-bottomed plates (Catalog No. BD356640, BD Biosciences, Palo Alto, Calif.). 24 h later, the cells were loaded for 1 h at 37° C. with 4 μM Flou-4 acetoxymethyl ester (Catalog No. F-14202, Molecular Probes, Eugene, Oreg.) in FLIPR buffer (1×HBSS, 20 mM HEPES, 2.5 mM Probenecid). Hanks' Balanced Salt Solution (HBSS) (10×) (catalog No. 14065-049) and HEPES (1M) (catalog No. 15630-056) were purchased from Invitrogen, Carlsbad, Calif. Probenecid (250 mM) (catalog No. P8761) was from Sigma, Buchs, Switzerland. The cells were washed five times with FLIPR buffer to remove excess dye and intracellular calcium mobilization, [Ca^2+]i were measured using a Fluorometric Imaging Plate Reader (FLIPR-96, Molecular Devices, Menlo Park, Calif.) as described previously (Malherbe et al., Mol. Pharmacol., 64, 823-832, 2003). Orexin A (catalog No. 1455, Toris Cookson Ltd, Bristol, UK) was used as agonist. Orexin A ([…] stock solution in DMSO) was diluted in FLIPR buffer+0.1% BSA. The EC50 and EC80 values of orexin-A were measured daily from standard agonist concentration-response curves in CHO(dHFr−)-OX1R and —OX2R cell lines. All compounds were dissolved in 100% DMSO. Inhibition curves were determined by addition of 11 concentrations (0.0001-10 μM) of inhibitory compounds and using EC80 value of orexin-A as agonist (a concentration which gave 80% of max agonist response, determined daily). The antagonists were applied 25 min (incubation at 37° C.) before the application of the agonist. Responses were measured as peak increase in fluorescence minus basal, normalized to the maximal stimulatory effect induced by EC80 value of orexin-A or orexin-B. Inhibition curves were fitted according to the Hill equation: y=100/(1+(x/IC50)^nH), where nH=slope factor using Excel-fit 4 software (Microsoft). Kb values were calculated according to the following equation Kb=IC50/(1+[A]/EC50) where A is the concentration of agonist added which is very close to agonist EC80 value, and IC50 and EC50 values were derived from the antagonist inhibition and orexin-A or B agonist curves, respectively.
row,Compound,Kb
1,"CNC(=O)[C@H](N[C@@H](CCc1ccc(C(F)(F)F)nc1)c1ccc(Cl)c(OC)c1)c1ccc(Cl)cc1 (racemic) [Example 220, (S,R)-2-[(R,S)-1-(4-Chloro-3-methoxy-phenyl)-3-(6-trifluoromethyl-pyridin-3-yl)-propylamino]-2-(4-chloro-phenyl)-N-methyl-acetamide]",0.0015 µM
2,"CNC(=O)[C@H](N[C@H](CCc1ccc(C(F)(F)F)nc1)c1ccc(Cl)c(OC)c1)c1ccc(F)cc1 (racemic) [Example 223, (S,R)-2-[(S,R)-1-(4-Chloro-3-methoxy-phenyl)-3-(6-trifluoromethyl-pyridin-3-yl)-propylamino]-2-(4-fluoro-phenyl)-N-methyl-acetamide]",0.0171 µM
3,"CNC(=O)[C@H](N[C@@H](CCc1ccc(C(F)(F)F)nc1)c1ccc(Cl)c(OC)c1)c1ccc(F)cc1 (racemic) [Example 224, (S,R)-2-[(R,S)-1-(4-Chloro-3-methoxy-phenyl)-3-(6-trifluoromethyl-pyridin-3-yl)-propylamino]-2-(4-fluoro-phenyl)-N-methyl-acetamide]",0.0057 µM
4,"CNC(=O)[C@H](N[C@@H](CCc1ccc(C(F)(F)F)nc1)c1ccc(F)c(OC)c1)c1ccc(Cl)cc1 (racemic) [Example 230, (S,R)-2-(4-Chloro-phenyl)-2-[(R,S)-1-(4-fluoro-3-methoxy-phenyl)-3-(6-trifluoromethyl-pyridin-3-yl)-propylamino]-N-methyl-acetamide]",0.0117 µM
5,"CNC(=O)[C@H](N[C@@H](CCc1ccc(C(F)(F)F)nc1)c1ccc(F)c(OC)c1)c1ccc(F)cc1 (racemic) [Example 240, (S,R)-2-[(R,S)-1-(4-Fluoro-3-methoxy-phenyl)-3-(6-trifluoromethyl-pyridin-3-yl)-propylamino]-2-(4-fluoro-phenyl)-N-methyl-acetamide]",0.0107 µM
6,"CNC(=O)[C@H](N[C@@H](CCc1ccc(Cl)nc1)c1ccc(F)c(C)c1)c1ccccc1 (racemic) [Example 266, (S,R)-2-[(R,S)-3-(6-Chloro-pyridin-3-yl)-1-(4-fluoro-3-methyl-phenyl)-propylamino]-N-methyl-2-phenyl-acetamide]",0.0175 µM
7,"CNC(=O)[C@H](N[C@@H](CCc1cnc(Cl)cn1)c1ccc(OC(F)F)c(OC(F)F)c1)c1ccccc1 (racemic) [Example 297, (S,R)-2-[(R,S)-1-(3,4-Bis-difluoromethoxy-phenyl)-3-(5-chloro-pyrazin-2-yl)-propylamino]-N-methyl-2-phenyl-acetamide]",0.0153 µM
8,"CNC(=O)[C@H](N[C@H](CCc1ccc(C(F)(F)F)cc1)c1cc(C)on1)c1ccccc1 (racemic) [Example 301, (S,R)—N-Methyl-2-[(S,R)-1-(5-methyl-isoxazol-3-yl)-3-(4-trifluoromethyl-phenyl)-propylamino]-2-phenyl-acetamide]",0.0116 µM

# Next, values leading:
row,Kb,Compound
1,0.0144 µM,"CNC(=O)[C@H](N[C@@H](CCc1ccc(C(F)(F)F)nc1)c1cccc(OC(F)F)c1)c1ccccc1 (racemic) [Example 225, (S,R)-2-[(R,S)-1-(3-Difluoromethoxy-phenyl)-3-(6-trifluoromethyl-pyridin-3-yl)-propylamino]-N-methyl-2-phenyl-acetamide]"
2,0.0195 µM,"CNC(=O)[C@H](N[C@H](CCc1ccc(C(F)(F)F)nc1)c1cccc(OC(F)(F)F)c1)c1ccccc1 (racemic) [Example 226, (S,R)—N-Methyl-2-phenyl-2-[(S,R)-1-(3-trifluoromethoxy-phenyl)-3-(6-trifluoromethyl-pyridin-3-yl)-propylamino]-acetamide]"
3,0.0035 µM,"CNC(=O)[C@H](N[C@@H](CCc1ccc(C(F)(F)F)nc1)c1ccc(F)c(C)c1)c1ccccc1 (racemic) [Example 228, (S,R)-2-[(R,S)-1-(4-Fluoro-3-methyl-phenyl)-3-(6-trifluoromethyl-pyridin-3-yl)-propylamino]-N-methyl-2-phenyl-acetamide]"
4,0.0085 µM,"CNC(=O)[C@H](N[C@@H](CCc1ccc(C(F)(F)F)nc1)c1ccc(F)c(OC)c1)c1ccccc1 (racemic) [Example 232, (S,R)-2-[(R,S)-1-(4-Fluoro-3-methoxy-phenyl)-3-(6-trifluoromethyl-pyridin-3-yl)-propylamino]-N-methyl-2-phenyl-acetamide]"
5,0.013 µM,"CNC(=O)[C@H](N[C@@H](CCc1ccc(C(F)(F)F)nc1)c1ccc(OC(F)F)c(OC)c1)c1ccc(Cl)cc1 (racemic) [Example 234, (S,R)-2-(4-Chloro-phenyl)-2-[(R,S)-1-(4-difluoromethoxy-3-methoxy-phenyl)-3-(6-trifluoromethyl-pyridin-3-yl)-propylamino]-N-methyl-acetamide]"
6,0.0196 µM,"CNC(=O)[C@H](N[C@@H](CCc1ccc(C(F)(F)F)nc1)c1ccc(C)c(Cl)c1)c1ccccc1 (racemic) [Example 238, (S,R)-2-[(R,S)-1-(3-Chloro-4-methyl-phenyl)-3-(6-trifluoromethyl-pyridin-3-yl)-propylamino]-N-methyl-2-phenyl-acetamide]"
7,0.0122 µM,"CNC(=O)[C@H](N[C@H](CCc1ccc(C(F)(F)F)nc1)c1ccc(Cl)c(C)c1)c1ccccc1 (racemic) [Example 243, (S,R)-2-[(S,R)-1-(4-Chloro-3-methyl-phenyl)-3-(6-trifluoromethyl-pyridin-3-yl)-propylamino]-N-methyl-2-phenyl-acetamide]"
8,0.0145 µM,"CNC(=O)[C@H](N[C@@H](CCc1ccc(C(F)(F)F)nc1)c1ccc(Cl)c(C)c1)c1ccccc1 (racemic) [Example 244, (S,R)-2-[(R,S)-1-(4-Chloro-3-methyl-phenyl)-3-(6-trifluoromethyl-pyridin-3-yl)-propylamino]-N-methyl-2-phenyl-acetamide]"
9,0.0022 µM,"CNC(=O)[C@H](N[C@@H](CCc1ccc(C(F)(F)F)nc1)c1ccc(C)c(C)c1)c1ccccc1 (racemic) [Example 251, (S,R)-2-[(R,S)-1-(3,4-Dimethyl-phenyl)-3-(6-trifluoromethyl-pyridin-3-yl)-propylamino]-N-methyl-2-phenyl-acetamide]"
10,0.0024 µM,"CNC(=O)[C@H](N[C@H](CCc1ccc(C(F)(F)F)nc1)c1ccc(C)c(OC)c1)c1ccccc1 (racemic) [Example 252, (S,R)-2-[(S,R)-1-(3-Methoxy-4-methyl-phenyl)-3-(6-trifluoromethyl-pyridin-3-yl)-propylamino]-N-methyl-2-phenyl-acetamide]"
11,0.0034 µM,"CNC(=O)[C@H](N[C@@H](CCc1ccc(C(F)(F)F)nc1)c1ccc(C)c(OC)c1)c1ccccc1 (racemic) [Example 253, (S,R)-2-[(R,S)-1-(3-Methoxy-4-methyl-phenyl)-3-(6-trifluoromethyl-pyridin-3-yl)-propylamino]-N-methyl-2-phenyl-acetamide]"
12,0.0536 µM,"CNC(=O)[C@H](N[C@H](CCc1ccc(C(F)(F)F)cc1)c1ccc(OC(F)F)c(OC(F)F)c1)c1ccccc1 (racemic) [Example 290, (S,R)-2-[(S,R)-1-(3,4-Bis-difluoromethoxy-phenyl)-3-(4-trifluoromethyl-phenyl)-propylamino]-N-methyl-2-phenyl-acetamide]"
13,0.013 µM,"CNC(=O)[C@H](N[C@@H](CCc1ccc(Cl)nc1)c1ccc(OC(F)F)c(OC(F)F)c1)c1ccccc1 (racemic) [Example 296, (S,R)-2-[(R,S)-1-(3,4-Bis-difluoromethoxy-phenyl)-3-(6-chloro-pyridin-3-yl)-propylamino]-N-methyl-2-phenyl-acetamide]"
